{
  "source": "patent US9586958B2",
  "about": "“Prodrug derivatives of substituted triazolopyridines” (BAYER PHARMA AKTIENGESELLSCHAFT, priority 2013, dated 2017)",
  "key": {"[1]": {"tested_on": "HeLa human cervical tumor cells", "test": "Proliferation assay, HeLa cells (crystal violet)", "type": "cell-based", "protocol": "(§1) Cultivated tumor cells (MCF7, hormone dependent human mammary carcinoma cells, ATCC HTB22; NCI-H460, human non-small cell lung carcinoma cells, ATCC HTB-177; DU 145, hormone-independent human prostate carcinoma cells, ATCC HTB-81; HeLa-MaTu, human cervical carcinoma cells, EPO-GmbH, Berlin; HeLa-MaTu-ADR, multidrug-resistant human cervical carcinoma cells, EPO-GmbH, Berlin; HeLa human cervical tumor cells, ATCC CCL-2; B16F10 mouse melanoma cells, ATCC CRL-6475) were plated at a density of 5000 cells/well (MCF7, DU145, HeLa-MaTu-ADR), 3000 cells/well (NCI-H460, HeLa-MaTu, HeLa), or 1000 cells/well (B16F10) in a 96-well multititer plate in 200 μl of their respective growth medium supplemented 10% fetal calf serum. After 24 hours, the cells of one plate (zero-point plate) were stained with crystal violet (see below), while the medium of the other plates was replaced by fresh culture medium (200 μl), to which the test substances were added in various concentrations (0 μM, as well as in the range of 0.01-30 μM; the final concentration of the solvent dimethyl sulfoxide was 0.5%). The cells were incubated for 4 days in the presence of test substances. Cell proliferation was determined by staining the cells with crystal violet: the cells were fixed by adding 20 μl/measuring point of an 11% glutaric aldehyde solution for 15 minutes at room temperature. After three washing cycles of the fixed cells with water, the plates were dried at room temperature. The cells were stained by adding 100 μl/measuring point of a 0.1% crystal violet solution (pH 3.0). After three washing cycles of the stained cells with water, the plates were dried at room temperature. The dye was dissolved by adding 100 μl/measuring point of a 10% acetic acid solution. The extinction was determined by photometry at a wavelength of 595 nm. The change of cell number, in percent, was calculated by normalization of the measured values to the extinction values of the zero-point plate (=0%) and the extinction of the untreated (0 μm) cells (=100%). The IC50 values were determined by means of a 4 parameter fit."}, "[2]": {"tested_on": "HeLa-MaTu-ADR, multidrug-resistant human cervical carcinoma cells", "test": "Proliferation assay, HeLa-MaTu-ADR cells (crystal violet)", "type": "cell-based", "conditions": "read-out: IC50 determined in a HeLa-MaTu-ADR cell proliferation assay", "protocol": "as §1"}, "human kinase Mps-1 [3]": {"biological_target": "T1, human kinase Mps-1 (Homo sapiens, UniProt P33981)", "T1 construct": "N-terminally GST-tagged human full length recombinant Mps-1 kinase; GST (N); purchased Invitrogen, Karslruhe, Germany PV4071", "T1 sequence (P33981 1-857)": "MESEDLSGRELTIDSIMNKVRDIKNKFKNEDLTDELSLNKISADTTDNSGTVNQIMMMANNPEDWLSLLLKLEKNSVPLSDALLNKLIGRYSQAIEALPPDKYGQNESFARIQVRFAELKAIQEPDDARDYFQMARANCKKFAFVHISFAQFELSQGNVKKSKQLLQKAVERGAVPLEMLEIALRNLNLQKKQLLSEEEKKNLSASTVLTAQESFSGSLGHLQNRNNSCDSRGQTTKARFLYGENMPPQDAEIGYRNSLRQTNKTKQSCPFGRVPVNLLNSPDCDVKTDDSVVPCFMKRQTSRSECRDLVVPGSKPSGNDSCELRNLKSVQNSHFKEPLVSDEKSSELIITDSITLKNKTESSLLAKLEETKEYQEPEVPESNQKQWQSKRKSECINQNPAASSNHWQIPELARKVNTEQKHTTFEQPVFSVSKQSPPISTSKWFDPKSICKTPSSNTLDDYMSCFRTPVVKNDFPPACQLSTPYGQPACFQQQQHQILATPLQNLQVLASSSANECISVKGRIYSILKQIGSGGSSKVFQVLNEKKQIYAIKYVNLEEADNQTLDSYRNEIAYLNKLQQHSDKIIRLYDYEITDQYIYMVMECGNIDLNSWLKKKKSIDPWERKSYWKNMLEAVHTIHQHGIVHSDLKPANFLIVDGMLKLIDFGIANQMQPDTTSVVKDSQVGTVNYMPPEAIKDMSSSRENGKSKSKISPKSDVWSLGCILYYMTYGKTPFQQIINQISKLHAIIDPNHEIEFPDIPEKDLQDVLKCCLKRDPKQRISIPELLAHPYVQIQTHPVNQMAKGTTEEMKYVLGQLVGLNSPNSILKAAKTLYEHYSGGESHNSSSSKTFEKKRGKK", "test": "Mps-1 kinase assay (TR-FRET) with 10 μM ATP", "type": "biochemical"}, "human kinase Mps-1 [4]": {"biological_target": "T1, human kinase Mps-1", "test": "Mps-1 kinase assay (TR-FRET) with 2 mM ATP", "type": "biochemical"}, "[5]": {"test": "Metabolic stability in vitro, rat liver microsomes (calculation of Fmax)", "type": "in vitro ADME", "protocol": "(§2) The metabolic stability of test compounds in vitro was determined by incubating them at 1 μM with a suspension liver microsomes in 100 mM phosphate buffer, pH7.4 (NaH2PO4×H2O+Na2HPO4×2H2O) at a protein concentration of 0.5 mg/mL and at 37° C. The reaction was activated by adding a co-factor mix containing 1.2 mg NADP, 3 IU glucose-6-phosphate dehydrogenase, 14.6 mg glucose-6-phosphate and 4.9 mg MgCl2 in phosphate buffer, pH 7.4. Organic solvent in the incubations was limited to <0.2% dimethylsulfoxide (DMSO) and <1% methanol. During incubation, the microsomal suspensions were continuously shaken and aliquots were taken at 2, 8, 16, 30, 45 and 60 min, to which equal volumes of cold methanol were immediately added. Samples were frozen at −20° C. over night, subsequently centrifuged for 15 minutes at 3000 rpm and the supernatant was analyzed with an Agilent 1200 HPLC-system with LCMS/MS detection.\n(§3) The half-life of a test compound was determined from the concentration-time plot. From the half-life the intrinsic clearances were calculated. Together with the additional parameters liver blood flow, specific liver weight and microsomal protein content the hepatic in vivo blood clearance (CL) and the maximal oral bioavailability (Fmax) were calculated for the different species. The following parameter values were used: Liver blood flow—1.3 L/h/kg (human), 2.1 L/h/kg (dog), 4.2 L/h/kg (rat); specific liver weight—21 g/kg (human), 39 g/kg (dog), 32 g/kg (rat); microsomal protein content—40 mg/g.\n(§4) With the described assay only phase-I metabolism of microsomes is reflected, e.g. typically oxidoreductive reactions by cytochrome P450 enzymes and flavin mono-oxygenases (FMO) and hydrolytic reactions by esterases (esters and amides)."}, "[6]": {"test": "Metabolic stability in vitro, human liver microsomes (calculation of Fmax)", "type": "in vitro ADME", "conditions": "for Human liver microsomes; Fmax [%]: 1 μM; for calculated maximal oral bioavailability (Fmax) at 1 μM: pH 7.4, determined by means of human liver microsomes, read-out: maximum oral bioavailability (Fmax) in human", "protocol": "as §2, §3, §4"}, "[7]": {"test": "Metabolic stability in vitro, dog liver microsomes (calculation of Fmax)", "type": "in vitro ADME", "protocol": "as §2, §3, §4"}, "[8]": {"conditions": "96 h, HeLa cells, 4 days, read-out: Inhibition of cell proliferation, cell Line: HeLa IC50"}, "[9]": {"conditions": "HeLa, comparison table with comparative examples, read-out: Inhibition of cell proli-feration, cell line: HeLa, IC50"}, "[10]": {"conditions": "HeLa, read-out: IC50 in a HeLa cell proliferation assay"}, "[11]": {"conditions": "IC50 in an Mps-1 kinase assay with a concentration of 10 μM ATP"}, "[12]": {"conditions": "Mps-1 Inhibition, IC50 (Assay with 10 μM ATP), comparison table with comparative examples"}, "[13]": {"conditions": "Mps-1 Inhibition, IC50 in M (Assay with 10 μM ATP)"}, "[14]": {"conditions": "IC50 in an Mps-1 kinase assay with a concentration of 2 mM ATP"}, "[15]": {"conditions": "Mps-1 Inhibition, IC50 in M (Assay with 2 mM ATP)"}, "[16]": {"conditions": "comparison table with comparative examples"}},
  "note": "Read-outs that look alike come from different tables or passages of the source.",
  "data": [
    {"smiles": "COc1cc(C(=O)N2CCC2)ccc1Nc1nc2ccc(-c3ccc(NC(=O)[C@H](C)c4ccc(F)cc4)cc3)cn2n1", "note": "[Compound A4, (2R)-N-[4-(2-{[4-(azetidin-1-ylcarbonyl)-2-methoxyphenyl]amino}[1,2,4]-triazolo[1,5-α]pyridin-6-yl)phenyl]-2-(4-fluorophenyl)propanamide]", "values": [
      {"measurement": "IC50", "setting": "[1]; [8]", "result": "< 100", "unit": "nM"},
      {"measurement": "IC50", "setting": "[1]; [9]", "result": "< 100", "unit": "nM"},
      {"measurement": "IC50", "setting": "[1]; [10]", "result": "< 400", "unit": "nM"},
      {"measurement": "IC50", "setting": "[2]", "result": "< 10000", "unit": "nM"},
      {"measurement": "IC50", "setting": "human kinase Mps-1 [3]; [11]", "result": "≤ 1", "unit": "nM"},
      {"measurement": "IC50", "setting": "human kinase Mps-1 [3]; [12]", "result": "< 1", "unit": "nM"},
      {"measurement": "IC50", "setting": "human kinase Mps-1 [3]; [13]", "result": "< 1", "unit": "nM"},
      {"measurement": "IC50", "setting": "human kinase Mps-1 [4]; [14]", "result": "< 2", "unit": "nM"},
      {"measurement": "IC50", "setting": "human kinase Mps-1 [4]; [15]", "result": "< 1", "unit": "nM"},
      {"measurement": "Rat liver microsomes; Fmax [%]", "setting": "[5]; [16]", "result": 74, "unit": "%"},
      {"measurement": "Rat liver microsomes; Fmax [%]", "setting": "[5]; rat liver microsomes, 1 μM", "result": 74, "unit": "%"},
      {"measurement": "Human liver microsomes; Fmax [%]", "setting": "[6]", "result": 62, "unit": "%"},
      {"measurement": "calculated maximal oral bioavailability (Fmax) at 1 μM", "setting": "[6]", "result": "> 60", "unit": "%"},
      {"measurement": "Dog liver microsomes; Fmax [%]", "setting": "[7]; [16]", "result": 75, "unit": "%"},
      {"measurement": "Dog liver microsomes; Fmax [%]", "setting": "[7]; dog liver microsomes, 1 μM", "result": 75, "unit": "%"}
    ]},
    {"smiles": "C[C@@H](C(=O)Nc1ccc(-c2ccc3nc(Nc4ccc(C(=O)N5CC(F)C5)cc4OCC(F)(F)F)nn3c2)cc1)c1ccc(F)cc1", "note": "[Compound A5, (2R)-N-{4-[2-({4-[(3-fluoroazetidin-1-yl)carbonyl]-2-(2,2,2-trifluoroethoxy)phenyl}amino)[1,2,4]triazolo[1,5-α]pyridin-6-yl]phenyl}-2-(4-fluorophenyl)propanamide]", "values": [
      {"measurement": "IC50", "setting": "[1]; [8]", "result": "< 100", "unit": "nM"},
      {"measurement": "IC50", "setting": "[1]; [9]", "result": "< 100", "unit": "nM"},
      {"measurement": "IC50", "setting": "[1]; [10]", "result": "< 400", "unit": "nM"},
      {"measurement": "IC50", "setting": "[2]", "result": "< 10000", "unit": "nM"},
      {"measurement": "IC50", "setting": "human kinase Mps-1 [3]; [11]", "result": "≤ 1", "unit": "nM"},
      {"measurement": "IC50", "setting": "human kinase Mps-1 [3]; [12]", "result": "< 1", "unit": "nM"},
      {"measurement": "IC50", "setting": "human kinase Mps-1 [3]; [13]", "result": "< 1", "unit": "nM"},
      {"measurement": "IC50", "setting": "human kinase Mps-1 [4]; [14]", "result": "< 2", "unit": "nM"},
      {"measurement": "IC50", "setting": "human kinase Mps-1 [4]; [15]", "result": "< 1", "unit": "nM"},
      {"measurement": "Rat liver microsomes; Fmax [%]", "setting": "[5]; [16]", "result": 89, "unit": "%"},
      {"measurement": "Rat liver microsomes; Fmax [%]", "setting": "[5]; rat liver microsomes, 1 μM", "result": 89, "unit": "%"},
      {"measurement": "Human liver microsomes; Fmax [%]", "setting": "[6]", "result": 69, "unit": "%"},
      {"measurement": "calculated maximal oral bioavailability (Fmax) at 1 μM", "setting": "[6]", "result": "> 60", "unit": "%"},
      {"measurement": "Dog liver microsomes; Fmax [%]", "setting": "[7]; [16]", "result": 57, "unit": "%"},
      {"measurement": "Dog liver microsomes; Fmax [%]", "setting": "[7]; dog liver microsomes, 1 μM", "result": 57, "unit": "%"}
    ]}
  ]
}
